# Source: US10155948B2, “Pharmaceutical composition for preventing or treating diabetic complications and screening method for preventive or therapeutic agent for diabetic complications” (KANGWON NATIONAL UNIVERSITY UNIVERSITY-INDUSTRY COOPERATION …, priority 2016, dated 2018)
# Key:
# HRECs [1] = experiment: Visualization of actin filaments (stress fiber formation) in HRECs; format: cell-based, human; details: summary statement, conditions not given
# Method: (§1) Actin filaments and VE-cadherin were visualized as previously described. For visualization of actin filaments, cells were treated with 10 ng/ml VEGF for 1 hr at 37° C., fixed with 3.7% formaldehyde, and permeabilized with 0.2% Triton X-100. […] For visualization of VE-cadherin, cells were preincubated with the TGase2 inhibitors for 30 min and treated with 10 ng/ml VEGF for 90 min at 37° C. Following fixation and permeabilization, cells were incubated overnight with a monoclonal anti-VE-cadherin antibody (1:200, Santa Cruz Biotechnology) at 4° C. Cells were then probed with an FITC-conjugated goat anti-mouse antibody (1:200, Sigma) and VE-cadherin was visualized using confocal microscopy. Adherens junctions are represented by histograms of VE-cadherin as indicated by dotted lines and were quantitatively analyzed using peak fluorescence intensities of the histograms at the single-cell level for 10 randomly selected cells per experiment.
# (§2) (A-C) HRECs were preincubated with 50 μM cystamine (Cys) and 20 μM MDC for 30 min and treated with 10 ng/ml VEGF. Stress fibers and VE-cadherin were stained and visualized by confocal microscopy as described in Research Design and Methods (n=3) ((A) Representative images of stress fibers. Scale Bar, 30 μm. (B) Representative images of VE-cadherin. Scale Bar, 10 μm). Adherens junctions are represented by histograms of VE-cadherin as indicated by dotted lines. (C) Adherens junctions were quantitatively analyzed using the peak fluorescence intensities of the histograms at the single-cell level. The results are expressed as mean±SD from three independent trials. (D) In-vitro endothelial cell monolayer permeability assay. HRECs on inserts of Transwell® Permeable Supports were incubated with 50 μM cystamine and 20 μM MDC for 30 min and treated with 10 ng/mL VEGF for 90 min. The amount of FITC-dextran that diffused to the lower chamber was measured by a microplate spectrofluorometer (n=3) (**p<0.01).
# (§3) HRECs were transfected with 100 nM human TGase2-specific siRNA (TGase2 siRNA) or 100 nM control (Ctrl) siRNA. Endothelial cells were treated with 10 ng/ml VEGF and subjected to the confocal microscopic visualization of stress fibers (A) and VE-cadherin (B), as described in Research Design and Methods (n=3). (A) TGase2 siRNA inhibition of VEGF-induced formation of stress fibers. Scale bar, 30 μm. (B) Representative images of VE-cadherin and adherens junctions represented by VE-cadherin histograms. Scale bar, 10 μm. (C) Adherens junctions were quantitatively analyzed using peak fluorescence intensities of the histograms at the single-cell level. Results are expressed as mean±SD from three independent experiments (***p<0.001).
# VE-cadherin = experiment: Visualization of VE-cadherin (adherens junction disruption) in HRECs; format: cell-based, human; details: summary statement, conditions not given
# Method: as §1, §2, §3
# TGase2 [2] = target: T1, TGase2 (Mus musculus, UniProt P21981); experiment: In-vivo TGase activity in retina of streptozotocin-diabetic mice; details: diabetic mice, intravitreal 2 μl: 50 mM cystamine, 20 mM MDC, 1 μM C-peptide, 2 μM Trolox, 500 mM NAC; after 24 hrs; n=8
# T1 construct: from tissue; host or cells: retina of streptozotocin-diabetic C57BL/6 mice
# T1 sequence (P21981 1-686): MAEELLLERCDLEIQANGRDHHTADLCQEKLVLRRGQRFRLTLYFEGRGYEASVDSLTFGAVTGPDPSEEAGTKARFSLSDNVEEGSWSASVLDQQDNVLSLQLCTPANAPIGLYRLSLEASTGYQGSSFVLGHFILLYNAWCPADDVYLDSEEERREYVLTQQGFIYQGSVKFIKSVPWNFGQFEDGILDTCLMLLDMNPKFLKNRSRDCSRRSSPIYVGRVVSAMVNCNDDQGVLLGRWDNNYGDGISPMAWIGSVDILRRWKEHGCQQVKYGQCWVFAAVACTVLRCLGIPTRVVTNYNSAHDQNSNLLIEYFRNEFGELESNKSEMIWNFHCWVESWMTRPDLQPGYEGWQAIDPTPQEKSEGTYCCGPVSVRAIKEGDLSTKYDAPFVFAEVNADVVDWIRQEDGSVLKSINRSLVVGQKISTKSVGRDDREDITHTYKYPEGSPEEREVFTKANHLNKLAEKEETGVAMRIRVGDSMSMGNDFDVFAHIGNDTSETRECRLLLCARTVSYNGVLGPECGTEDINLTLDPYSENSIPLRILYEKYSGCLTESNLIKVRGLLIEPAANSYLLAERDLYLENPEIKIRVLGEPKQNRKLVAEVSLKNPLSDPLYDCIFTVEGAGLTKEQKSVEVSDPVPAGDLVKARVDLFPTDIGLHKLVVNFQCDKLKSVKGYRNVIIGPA
# Method: Two weeks after streptozotocin injection, diabetic mice were intravitreally injected with 2 μl of TGase inhibitors (50 mM cystamine or 20 mM MDC), 1 μM C-peptide (American Peptide Company, Sunnyvale, Calif.), ROS scavengers (2 μM Trolox or 500 mM NAC), or 65 μM mouse TG2-specific siRNA (Dharmacon, Lafayette, Colo.) into one eye and an equal volume of PBS or mouse control siRNA (Dharmacon, Lafayette, Colo.) into the contralateral eye. Non-diabetic mice were also intravitreally injected with 2 μl of PBS or mouse control siRNA into the eyes. After 24 hrs for inhibitors or C-peptide or 48 hrs for mouse TGase2 siRNA, mice were subjected to measurement of in-vivo TGase activity and vascular leakage from the retina.
# In vivo Tgase transamidating activity was determined in mouse retina using confocal microscopy (FIG. 5A). 24 hrs after intravitreal injection of TGase2 inhibitors and C-peptide or 48 h after the injection of mouse TGase2-specific siRNA, mice were deeply anaesthetized using 2.5% avertin and 48 μl of 100 mM BAPA was injected into the left ventricle. BAPA was allowed to circulate for 10 min and mice were sacrificed by cervical dislocation. Eyes were then enucleated and immediately fixed with 4% paraformaldehyde for 45 min. Retinas were dissected in the Maltese cross-configuration and permeabilized with 0.2% Triton X-100 in PBS for 30 min at RT. After incubation with the blocking solution for 30 min, retinas were treated with FITC-conjugated streptavidin (1:200, v/v) in the blocking solution for 1 hr at RT. The superficial vessels of stained retinas (n=8 per group) were observed using confocal microscopy and fluorescence intensities were analyzed using Fluoview software (FV-300). In-vivo TGase activities were quantitatively determined using fluorescence intensities in the retinas of normal and diabetic mice.
# Six-week-old male C57BL/6 mice were obtained from KOATECH (Pyeongtaek, Korea). TGase2^−/− mice (C57BL/6) were prepared by disrupting exons 5 and 6 of TGase2 by homologous recombination, as previously described. Diabetic mice were generated by a single intraperitoneal injection of streptozotocin (150 mg/kg body weight, Sigma) freshly prepared in 100 mM citrate buffer (pH 4.5) as previously described. Mice with non-fasting blood glucose levels greater than 19 mM, polyuria and glucosuria were considered diabetic. Experiments were performed in strict accordance with the guidelines of the Institutional Animal Care and Use Ethics Committee of Kangwon National University.
# To validate the in-vitro findings, the present inventors further investigated the role of TGase2 in hyperglycemia-induced vascular leakage in the retina of diabetic mice. For this study, the present inventors designed an in-vivo TGase activity assay using confocal microscopy in mouse retina (FIG. 5A). In this assay, BAPA, which is a TGase2 pseudo substrate, was systemically delivered into the blood circulatory system by injection into the left ventricles of mice, and biotinylated proteins in the retinas were probed with FITC-conjugated streptavidin.
# (A) A schematic diagram for determining TGase2 activity in mouse retina. (B,C) Streptozotocin-induced diabetic mice were intravitreally injected with 2 μl cystamine (diabetic+Cys), MDC (diabetic+MDC), C-peptide (diabetic+C-pep), Trolox (diabetic+Trolox) or NAC (diabetic+NAC) into one eye and an equal volume of PBS into the contralateral eye (diabetic). Non-diabetic mice were also intravitreally injected with 2 μl PBS into both eyes (normal). TGase2 activities in retinas were visualized by confocal microscopy and quantitatively determined as described in Research Design and Methods (n=8 per group). (B) Representative TGase activity images in the retinas. […] Scale bar, […]. (C) In-vivo TGase activities were quantified by measuring the fluorescence intensity in retinas (***p<0.001). […]
# TGase2 [3] = target: T2, TGase2 (Homo sapiens, UniProt P21980); experiment: In-situ TGase activity by confocal microscopy in VEGF-treated HRECs; format: cell-based; parameters: endogenous in cells; host or cells: human retinal endothelial cells (HRECs); details: 10 ng/ml VEGF 2 hrs, 50 μM cystamine, 20 μM MDC, 5 μM BAPTA-AM, 1 mM NAC, 0.5 μM Trolox, p<0.001
# T2 sequence (P21980 1-687): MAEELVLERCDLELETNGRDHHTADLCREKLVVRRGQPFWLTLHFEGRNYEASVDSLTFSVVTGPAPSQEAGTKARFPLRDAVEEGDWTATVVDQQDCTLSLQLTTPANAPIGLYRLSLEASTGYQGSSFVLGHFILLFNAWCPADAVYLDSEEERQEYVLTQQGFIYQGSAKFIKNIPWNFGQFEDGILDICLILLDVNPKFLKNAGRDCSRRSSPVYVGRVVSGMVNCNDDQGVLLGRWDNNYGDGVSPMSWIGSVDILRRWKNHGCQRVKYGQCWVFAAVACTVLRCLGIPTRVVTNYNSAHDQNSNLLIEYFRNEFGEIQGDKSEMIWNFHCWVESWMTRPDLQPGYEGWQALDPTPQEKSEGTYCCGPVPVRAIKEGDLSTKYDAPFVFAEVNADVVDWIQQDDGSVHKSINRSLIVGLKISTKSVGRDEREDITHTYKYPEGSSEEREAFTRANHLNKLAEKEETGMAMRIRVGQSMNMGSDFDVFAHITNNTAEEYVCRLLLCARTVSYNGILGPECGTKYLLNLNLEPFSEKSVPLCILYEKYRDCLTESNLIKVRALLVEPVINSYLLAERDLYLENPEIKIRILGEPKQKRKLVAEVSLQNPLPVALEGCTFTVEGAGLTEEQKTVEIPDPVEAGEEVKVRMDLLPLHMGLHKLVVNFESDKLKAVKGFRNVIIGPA
# Method: HUVEC isolation was done by our own supply and Human retinal endothelial cells (HRECs) were purchased from the Applied Cell Biology Research Institute (Cell Systems, Kirkland, Wash.). Both respectively were grown on 2% gelatin-coated plates in a M199 medium supplemented with 20% fetal bovine serum (FBS), 3 ng/ml basic fibroblastic growth factor, 5 units/ml heparin, 100 units/ml penicillin, and 100 μg/ml streptomycin. For experiments, cells were incubated for 6 hrs in a low-serum medium supplemented with 1% FBS and antibiotics.
# In-situ Tgase transamidating activity was determined via confocal microscopic assay according to a previously known procedure. In brief, cells were incubated with 1 mM 5-(biotinamido)pentylamine (BAPA) for 1 hr at 37° C., fixed with 3.7% formaldehyde in PBS for 30 min, and permeabilized with 0.2% Triton X-100 in PBS for 30 min. After incubation with a blocking solution of 2% BSA in 20 mM Tris (pH 7.6), 138 mM NaCl, and 0.1% Tween 20 for 30 min, cells were treated with Cy3-conjugated streptavidin (1:200, v/v) in the blocking solution for 1 hr. Single-cell fluorescence intensities of stained cells were determined using confocal microscopy for 10 randomly selected cells per test. TGase activities were determined by comparing average fluorescence intensities of treated cells with those of control cells (expressed as multiples thereof).
# HRECs were transfected with human TGase2-specific siRNA as described previously. In brief, cells were transfected with various concentrations of human TGase2-siRNA or 100 nM control siRNA (Dharmacon, Lafayette, Colo.) using siLentFect lipid reagent (Bio-Rad Laboratories, Hercules, Calif.) according to the manufacturer's instructions. Six hours after transfection with the indicated concentrations, the medium was replaced with a fresh culture medium and the transfected cells were further incubated for 24 hrs.
# A detailed description of FIGS. 1A-1F are given below. […] (A, B) HRECs were incubated with 10 ng/ml VEGF for the indicated times (A) or for 2 hrs (B) in the presence of TGase inhibitors (50 μM cystamine and 20 μM MDC), 5 μM Ca^2+ chelator BAPTA-AM, or ROS scavengers (1 mM NAC or 0.5 μM Trolox). In-situ TGase activity was determined by confocal microscopy as described in Research Design and Methods (A: Time course changes in VEGF-induced transglutaminase activation; and B: Effects of various inhibitors on VEGF-induced transglutaminase activation). (C,D) HRECs were transfected with the indicated concentrations (C) or 100 nM (D) of human TGase2-specific siRNA (TGase2 siRNA) or 100 nM control (Ctrl) siRNA. Endothelial cells were treated with 10 ng/ml VEGF and subjected to confocal microscopic determination of in-situ TGase activity (C: Dose-dependent inhibition of TGase2 expression by TGase2 siRNA, TGase2 expression being analyzed by Western blot; and D: TGase2 siRNA prevention of VEGF-induced transglutaminase activation). FIGS. 1E and 1F show the effects of various inhibitors on the elevation of intracellular Ca^2+ (E) and ROS (F). Intracellular Ca^2+ and ROS levels were determined by confocal microscopy as described in Research Design and Methods. Results are expressed as mean±SD from three independent trials (***p<0.001).
# HRECs [4] = experiment: Intracellular ROS generation (H2DCFDA, confocal) in HRECs; format: cell-based, human; details: 10 ng/ml VEGF, inhibitors pretreated 30 min
# Method: Intracellular ROS generation was determined using 2′,7′-dichlorodihydrofluorescein diacetate (H2DCFDA, Molecular Probes, Eugene, Oreg.) staining as previously described. Cells were pretreated with inhibitors for 30 min and co-incubated with 10 ng/ml of VEGF and 10 μM H2DCFDA in low-serum media (phenol red-free) for 10 min. Labeled cells were immediately analyzed using confocal microscopy (Fluoview-300, Olympus). Single-cell fluorescence intensities were determined for 10 randomly selected cells per test. Intracellular ROS levels were determined by comparing average fluorescence intensities of treated cells with those of control cells (expressed as multiples thereof). […] Intracellular Ca^2+ and ROS levels were determined by confocal microscopy as described in Research Design and Methods. Results are expressed as mean±SD from three independent trials (***p<0.001).
# HRECs [5] = experiment: Intracellular Ca2+ levels (Fluo4-AM, confocal) in HRECs; format: cell-based, human; details: 10 ng/ml VEGF, inhibitors 30 min
# Method: Cells on coverslips were co-incubated with 2 μM Fluo4-AM and various inhibitors for 30 min at 37° C. Coverslips were scanned every 10 sec in the presence of 10 ng/ml VEGF using a confocal microscope (FV-300, Olympus Tokyo, Japan). Single-cell fluorescence intensities of peaks were determined for 10 randomly selected cells per trial.
hyperglycemia-induced TGase2 activation in diabetic retina (in-vivo TGase activity) (TGase2 [2]),VEGF-induced TGase activation (in-situ TGase activity) (TGase2 [3]),Compound,VEGF-induced stress fiber formation (HRECs [1]),VEGF-induced VE-cadherin disruption (VE-cadherin),VEGF-induced intracellular ROS generation (HRECs [4]),VEGF-elevated intracellular Ca2+ levels (HRECs [5])
blocked,,"C-peptide: 31-amino acid peptide, EAEDLQVGQVELGGGPGAGSLQPLALEGSLQ (SEQ ID NO. 2), co-secreted with insulin by pancreatic β cells (listed as Homo sapiens)",prevented,prevented,,
,inhibited,"CC(=O)N[C@@H](CS)C(=O)O [NAC, N-acetyl cysteine]",,,,
,inhibited,CC(=O)OCOC(=O)CN(CC(=O)OCOC(C)=O)c1ccccc1OCCOc1ccccc1N(CC(=O)OCOC(C)=O)CC(=O)OCOC(C)=O [BAPTA-AM],,,significantly inhibited,inhibited
,,NCCO [ethanolamine],prevented,prevented,,
